# From patent publication US4770705A, “Salts of alkyl-2-benzimidazole-carbamate and fungicidal compositions thereof suitable for paints and plaster” (Schulke & Mayr GmbH, priority 1986, dated 1988)
# How the values were obtained:
# [1] = tested on: Aspergillus niger; experiment: Test Method A: fungus formation on treated paint/plaster discs, Aspergillus niger; assay type: cell-based
# Protocol: (§1) The biological effectiveness of a product according to Example 1 was tested both in an aqueous acrylate paint and in an aqueous plaster dispersion as follows:
# (§2) To 50 grams of a usual acrylic paint (for composition see Table I) and of a plaster (for composition see Table II) composition to be tested, the fungicidal compound of Example 1 was added in different concentrations. After extensive stirring, the samples were coated on a sheet of pasteboard and dried for 24 hours at room temperature and for an additional 24 hours at 40° C. These paper samples were then subjected for 72 hours to a water sprayout test whereby 1 liter of water per minute was flushed over the paper supports. After drying for 24 hours at room temperature and for 24 hours at 40° C., the test samples were irradiated for 24 hours with ultraviolet light. Test discs having a diameter of 50 mm were cut from the pasteboard and sterilized with ethylene oxide.
# (§3) Sabouraud-plates were seeded with a 0.2 ml suspension of either Aspergillus niger or Alternaria containing about 10^7 germs per ml. The test discs were put onto the plates and incubated at a temperature of 25° to 27° C. for a period of 3 weeks. After a period of 1 or 2 or 3 weeks, respectively, the contamination was rated as follows:
# (§4) 1=very small fungus formation (0-5% of the entire surface)
# (§5) 2=weak fungus formation (5-25% of the entire surface)
# (§6) 3=medium fungus formation (25 to 50% of the entire surface)
# (§7) 4=strong fungus formation (50-99% of the entire surface)
# (§8) 5=no inhibition of fungus formation.
# (§9) A known tetradecane-sulfonic acid adduct of 2-methoxycarbonylaminobenzimidazole (BCM), CARBENDASULF (Hoechst AG, Frankfurt/Main, Germany; prepared according to Example 1 of U.S. Pat. No. 4,046,906), was used for comparison.
# [2] = tested on: Alternaria; experiment: Test Method A: fungus formation on treated paint/plaster discs, Alternaria; assay type: cell-based
# Protocol: as §1, §2, §3, §4, §5, §6, §7, §8, §9
# [3] = acrylic dispersion paint, conc. 0.01%, 1 week
# [4] = acrylic dispersion paint, conc. 0.01%, 2 weeks
# [5] = acrylic dispersion paint, conc. 0.01%, 3 weeks
# [6] = acrylic dispersion paint, conc. 0.02%, 1 week
# [7] = acrylic dispersion paint, conc. 0.02%, 2 weeks
# [8] = acrylic dispersion paint, conc. 0.02%, 3 weeks
# [9] = acrylic dispersion paint, conc. 0.05%, 1 week
# [10] = acrylic dispersion paint, conc. 0.05%, 2 weeks
# [11] = acrylic dispersion paint, conc. 0.05%, 3 weeks
smiles,measurement,setting,value
"COC(=O)Nc1nc2ccccc2[nH]1 [CARBENDASULF, tetradecane-sulfonic acid adduct of 2-methoxycarbonylaminobenzimidazole (BCM)]",contamination rating (fungus formation),[1]; [3],3 (medium fungus formation (25 to 50% of the entire surface))
same,contamination rating (fungus formation),[1]; [4],3 (medium fungus formation (25 to 50% of the entire surface))
same,contamination rating (fungus formation),[1]; [5],4 (strong fungus formation (50-99% of the entire surface))
same,contamination rating (fungus formation),[1]; [6],2 (weak fungus formation (5-25% of the entire surface))
same,contamination rating (fungus formation),[1]; [7],2 (weak fungus formation (5-25% of the entire surface))
same,contamination rating (fungus formation),[1]; [8],3 (medium fungus formation (25 to 50% of the entire surface))
same,contamination rating (fungus formation),[1]; [9],1 (very small fungus formation (0-5% of the entire surface))
same,contamination rating (fungus formation),[1]; [10],1 (very small fungus formation (0-5% of the entire surface))
same,contamination rating (fungus formation),[1]; [11],2 (weak fungus formation (5-25% of the entire surface))
same,contamination rating (fungus formation),"[1]; plaster, conc. 0.01%, 1 week",2 (weak fungus formation (5-25% of the entire surface))
same,contamination rating (fungus formation),"[1]; plaster, conc. 0.01%, 2 weeks",3 (medium fungus formation (25 to 50% of the entire surface))
same,contamination rating (fungus formation),"[1]; plaster, conc. 0.01%, 3 weeks",3 (medium fungus formation (25 to 50% of the entire surface))
same,contamination rating (fungus formation),"[1]; plaster, conc. 0.02%, 1 week",1 (very small fungus formation (0-5% of the entire surface))
same,contamination rating (fungus formation),"[1]; plaster, conc. 0.02%, 2 weeks",2 (weak fungus formation (5-25% of the entire surface))
same,contamination rating (fungus formation),"[1]; plaster, conc. 0.02%, 3 weeks",3 (medium fungus formation (25 to 50% of the entire surface))
same,contamination rating (fungus formation),"[1]; plaster, conc. 0.05%, 1 week",1 (very small fungus formation (0-5% of the entire surface))
same,contamination rating (fungus formation),"[1]; plaster, conc. 0.05%, 2 weeks",1 (very small fungus formation (0-5% of the entire surface))
same,contamination rating (fungus formation),"[1]; plaster, conc. 0.05%, 3 weeks",2 (weak fungus formation (5-25% of the entire surface))
same,contamination rating (fungus formation),[2]; [3],3 (medium fungus formation (25 to 50% of the entire surface))
same,contamination rating (fungus formation),[2]; [4],3 (medium fungus formation (25 to 50% of the entire surface))
same,contamination rating (fungus formation),[2]; [5],4 (strong fungus formation (50-99% of the entire surface))
same,contamination rating (fungus formation),[2]; [6],2 (weak fungus formation (5-25% of the entire surface))
same,contamination rating (fungus formation),[2]; [7],2 (weak fungus formation (5-25% of the entire surface))
same,contamination rating (fungus formation),[2]; [8],3 (medium fungus formation (25 to 50% of the entire surface))
same,contamination rating (fungus formation),[2]; [9],1 (very small fungus formation (0-5% of the entire surface))
same,contamination rating (fungus formation),[2]; [10],2 (weak fungus formation (5-25% of the entire surface))
same,contamination rating (fungus formation),[2]; [11],2 (weak fungus formation (5-25% of the entire surface))
same,contamination rating (fungus formation),"[2]; plaster, conc. 0.01%, 1 week",2 (weak fungus formation (5-25% of the entire surface))
same,contamination rating (fungus formation),"[2]; plaster, conc. 0.01%, 2 weeks",3 (medium fungus formation (25 to 50% of the entire surface))
same,contamination rating (fungus formation),"[2]; plaster, conc. 0.01%, 3 weeks",4 (strong fungus formation (50-99% of the entire surface))
same,contamination rating (fungus formation),"[2]; plaster, conc. 0.02%, 1 week",1 (very small fungus formation (0-5% of the entire surface))
same,contamination rating (fungus formation),"[2]; plaster, conc. 0.02%, 2 weeks",2 (weak fungus formation (5-25% of the entire surface))
same,contamination rating (fungus formation),"[2]; plaster, conc. 0.02%, 3 weeks",4 (strong fungus formation (50-99% of the entire surface))
same,contamination rating (fungus formation),"[2]; plaster, conc. 0.05%, 1 week",1 (very small fungus formation (0-5% of the entire surface))
same,contamination rating (fungus formation),"[2]; plaster, conc. 0.05%, 2 weeks",2 (weak fungus formation (5-25% of the entire surface))
same,contamination rating (fungus formation),"[2]; plaster, conc. 0.05%, 3 weeks",2 (weak fungus formation (5-25% of the entire surface))
